# Patent US8466089B2, “Pyrazole compounds, process for their production and herbicides containing them” (Ishihara Sangyo Kaisha, Ltd., priority 2008, dated 2013)
# Read-outs that look alike come from different tables or passages of the source.
# What was measured:
# Format in all cases: in vivo
# corn (Zea mays L.) = test: Test Example 5, foliar treatment versus Reference Compounds; settings: 4.0 to 4.3 leaf stage, 7th day after application, read-out: Growth inhibition rate (%) (7th day after application) Corn
# From the text: (§1) Upland field soil was put into a 1/1,000,000 hectare pot, and seeds of various plants were sown. When the respective plants reached predetermined leaf stage ((1) velvetleaf (Abutilon theophrasti MEDIC.): 3.0 to 3.5 leaf stage, (2) giant foxtail (Setaria faberi Herrm.): 4.0 to 4.5 leaf stage, (3) green foxtail (Setaria viridis L.): 5.0 to 5.5 leaf stage, and (4) corn (Zea mays L.): 4.0 to 4.3 leaf stage, a wettable powder of compound No. 2-1 of the above-mentioned present invention, a wettable powder of the above-mentioned Reference Compound 1 and a wettable powder of the above-mentioned Reference Compound 2, prepared in accordance with a conventional preparation method, were weighed so that the active ingredients became the prescribed amounts, and diluted with water in an amount corresponding to 300 liter per 1 hectare (containing 0.5 vol % of an agricultural spreader (Destiny HC: WINFIELD SOLUTIONS by LLC). The spray solutions thus prepared were applied for foliar treatment by a small sprayer.
# (§2) On the 7th to 20th day after application, the state of growth of the respective plants was visually observed, and the herbicidal effect was evaluated by a growth inhibition rate (%) of 0 (equivalent to the non-treated area) to 100% (complete kill).
# [1] = tested on: giant foxtail (Setaria faberi Herrm.); test: as above; settings: 4.0 to 4.5 leaf stage, 20th day after application, read-out: Growth inhibition rate (%) (20th day after application) Giant foxtail
# From the text: as §1, §2
# [2] = tested on: green foxtail (Setaria viridis L.); test: as above; settings: 5.0 to 5.5 leaf stage, 18th day after application, read-out: Growth inhibition rate (%) (18th day after application) Green foxtail
# From the text: as §1, §2
# [3] = tested on: velvetleaf (Abutilon theophrasti MEDIC.); test: as above; settings: 3.0 to 3.5 leaf stage, 20th day after application, read-out: Growth inhibition rate (%) (20th day after application) Velvet leaf
# From the text: as §1, §2
# [4] = tested on: sorgo (Sorghum bicolor Moench) (var.: Lucky Sorgo); test: Test Example 6, soil column downward movement, sorgo bioassay; settings: 14th day after sowing
# Method: Soil (sterilized soil:sand=3:1) was packed (4 L) into a column (9.5 cm in diameter×40 cm in height, application area: 0.007 m^2), and tap water was dropped from above by a Peristaltic pump before application of the herbicide for the purpose of maintaining the soil moisture to be uniform. Then, 10 mL of a spray solution prepared so that each agent (Compound No. 2-1, the above Reference Compounds 1 and 2) would be at a concentration corresponding to 250 g/ha was dropwise applied by a pipette. After application, water was dropped again at a rate of 400 mL/hr for about 3 hours by means of a Peristaltic pump. After the dropping, the column was left to stand for 1 day, and then the column was vertically evenly divided and seeds of sorgo (Sorghum bicolor Moench) (var.: Lucky Sorgo) were sown in a row. On the 14th day after sowing, the state of growth of the plant was visually observed at 3 cm intervals from the application point of the agent, whereby the germination and the degree of growth were evaluated by a growth inhibition rate (%) of 0 (equivalent to the non-treated area) to 100% (complete kill) to obtain the results in Table 17.
# From the above results, the growth inhibition rates of Reference Compounds No. 1 and No. 2 are observed in depths deeper than that of Compound No. 2-1. […] Whereas, Compound No. 2-1 stayed at a shallow portion of soil (in a layer of from 0 to 9 cm).
compound,measurement,setting,value
COCCOc1c(S(C)(=O)=O)ccc(C(=O)c2cnn(C(C)C)c2O)c1Cl [Reference Compound 2],inhibition at 90 g/ha,corn (Zea mays L.),25%
same,inhibition at 3.5 g/ha,[1],0%
same,inhibition at 7 g/ha,[2],35%
same,inhibition at 3.5 g/ha,[3],50%
same,inhibition at 250 g/ha,"[4]; depth 0-3 cm, read-out: Growth inhibition rate (%) against sorgo, Depth (cm) from the applied surface 0-3",48%
same,inhibition at 250 g/ha,"[4]; depth 3-6 cm, read-out: Growth inhibition rate (%) against sorgo, Depth (cm) from the applied surface 3-6",45%
same,inhibition at 250 g/ha,"[4]; depth 6-9 cm, read-out: Growth inhibition rate (%) against sorgo, Depth (cm) from the applied surface 6-9",47%
same,inhibition at 250 g/ha,"[4]; depth 9-12 cm, read-out: Growth inhibition rate (%) against sorgo, Depth (cm) from the applied surface 9-12",43%
same,inhibition at 250 g/ha,"[4]; depth 12-15 cm, read-out: Growth inhibition rate (%) against sorgo, Depth (cm) from the applied surface 12-15",58%
same,inhibition at 250 g/ha,"[4]; depth 15-18 cm, read-out: Growth inhibition rate (%) against sorgo, Depth (cm) from the applied surface 15-18",55%
same,inhibition at 250 g/ha,"[4]; depth 18-21 cm, read-out: Growth inhibition rate (%) against sorgo, Depth (cm) from the applied surface 18-21",61%
same,inhibition at 250 g/ha,"[4]; depth 21-24 cm, read-out: Growth inhibition rate (%) against sorgo, Depth (cm) from the applied surface 21-24",63%
same,inhibition at 250 g/ha,"[4]; depth 24-27 cm, read-out: Growth inhibition rate (%) against sorgo, Depth (cm) from the applied surface 24-27",35%
same,inhibition at 250 g/ha,"[4]; depth 27-30 cm, read-out: Growth inhibition rate (%) against sorgo, Depth (cm) from the applied surface 27-30",8%
